Experimental data reported in patent publication US20080233179A1, “TRANSDERMAL COMPOSITION HAVING ENHANCED COLOR STABILITY” (priority 2006, published 2008).
Structures can show the parent of a compound that is named as a salt. Blank lines part the entries; values can stand above or below the compound they belong to.

Columns and labels:
[1] = levodopa taken alone; cited from earlier work
[2] = three times a day, pramipexole dihydrochloride tablets (Wright et al. 1997); cited from earlier work
D3 receptors = D3 receptors (Homo sapiens, UniProt P35462); conditions: cited from earlier work
Chain of D3 receptors (P35462 whole entry): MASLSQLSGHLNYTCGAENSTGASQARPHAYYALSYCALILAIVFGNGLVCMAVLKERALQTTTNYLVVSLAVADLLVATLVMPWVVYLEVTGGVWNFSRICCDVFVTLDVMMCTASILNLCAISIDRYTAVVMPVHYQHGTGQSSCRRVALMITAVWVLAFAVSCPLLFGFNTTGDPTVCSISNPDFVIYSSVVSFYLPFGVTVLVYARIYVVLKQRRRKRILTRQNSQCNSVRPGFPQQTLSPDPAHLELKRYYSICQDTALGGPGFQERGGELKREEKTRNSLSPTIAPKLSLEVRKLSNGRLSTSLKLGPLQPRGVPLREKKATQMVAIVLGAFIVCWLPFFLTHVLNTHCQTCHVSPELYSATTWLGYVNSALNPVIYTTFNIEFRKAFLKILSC

[3] = tested on: D2 subfamily of dopamine receptors; conditions: in vitro; cited from earlier work
[4] = Lowest effective concentration of sodium metabisulfite on pramipexole color stability (Example 4); format: physicochemical; conditions: pramipexole hydrochloride 2.00% (FBE) hydro-alcoholic mixture at apparent pH around 8.0
Experimental: A formulation free of antioxidants served as a blank reference (Formulation F).
In parallel, samples stored at 40° C. in a climatic chamber (C-20/600, Climat Temperatur System, Hechingen, Germany) for 1 month were assessed for color as well. […] The formulation containing the lowest level of sodium metabisulfite (0.10% wt, formulation C) was ranked “BY2”. All the other formulations were colorless.

Compound: N[C@@H](Cc1ccc(O)c(O)c1)C(=O)O [levodopa]
- fraction of the drug broken down into dopamine before it reaches the brain [1]: about 95%

Compound: CCCN[C@H]1CCc2nc(N)sc2C1 [pramipexole, (S)-2-amino-4,5,6,7-tetrahydro-6-(propylamino)benzothiazole dihydrochloride monohydrate]
- steady-state pharmacokinetic characteristics [2]: linear up to a daily dose of 4.5 mg
- affinity for D3 receptors relative to D2 or D4 receptor subtypes (D3 receptors): higher affinity than to D2 or D4 receptor subtypes
- intrinsic activity at the D2 subfamily of dopamine receptors [3]: full intrinsic activity

- minimal amount of sodium metabisulfite preventing color degradation [4]: 0.2 % wt
Compound: O=S([O-])S(=O)(=O)[O-].[Na+].[Na+] [sodium metabisulfite, Sodium metabisulfite]
